# Assay results reported in patent US20070123514A1, “Methods of modulating neurotrophin-mediated activity” (PainCeptor Pharma Corporation, priority 2005, published 2007).
# Key:
# [1] = system: PC12 (TrkA & p75); experiment: 125I-NGF binding displacement in PC12 cells; parameters: species or system rat; details: PC12 cells expressing TrkA and p75; result in words
# Experimental: The method for acquiring the PC12 data described in Table 1 is described herein in Example 1. Each experiment was done at least once with an n value of 4 for each data point. (n/a=not acquired)
# All cells were incubated at 37° C. in 5% CO2. PC12 cells were maintained in RPMI-1640 medium supplemented with 10% fetal bovine serum (FBS). A875 human melanoma cells were maintained in DMEM with 10% FBS. HEK 293 cells were stably transfected with human TrkA plasmid (see below) and maintained in DMEM with 10% FBS and G418 (600 μg/mL) for selection.
# NGF binding was evaluated using methods familiar to those who are skilled in the art. Briefly, cells expressing one or both NGF receptors (PC12: TrkA+p75; A875: p75 alone; HEK_trkA: TrkA alone) were harvested by replacing the medium with calcium-magnesium free balanced salt (Grey's) solution and incubating at 37° C. for 15 min. For NGF binding, cells were resuspended at a concentration of 2×10^6 cells/mL in HEPES-Krebs-Ringer (HKR) buffer (10 mM HEPES; 125 mM NaCl; 4.8 mM KCl; 1.3 mM CaCl2; 1.2 mM MgSO4; 1.2 mM KH2PO4; 1 mg/ml BSA; 1 mg/ml glucose; pH 7.4) and exposed to ^125I-NGF (˜0.1 nM) in the presence or absence of varying concentrations of the compound. Non-specific binding was determined for reference by incubating ^125I-NGF with an excess of non-radioactive NGF in the abence of compound. Following a two-hour incubation period at 4° C., ^125I-NGF bound to the cells was quantified in a gamma radiation counter following separation from unbound NGF by filtration or centrifugation through glycerol (10% in HKR). Inhibition of binding was calculated as a percent of the specific binding (calculated as the differential between ^125I-NGF binding in the absence and presence of an excess of non-radioactive NGF without compound). Dose-response inhibition curves were typically generated with seven concentrations of a given compound, with three replicates for each concentration. For most compounds, multiple dose-response curves were generated.
# The IC50 data shown in Table 1 were acquired using the procedure described herein using PC12 cells.
# [2] = system: Mice; experiment: Writhing test (acetic acid abdominal contraction test); format: in vivo, mouse
# Experimental: The acetic acid abdominal contraction test (Martinez et al., Pain 1999; 81: 179) was used to determine the efficacy of different compounds in a model of acute visceral chemical nociception. […] Compound or vehicle was administered (i.p. or s.c.) 15-45 minutes prior to the acetic acid injection. Each episode of writhing is characterized by a lengthwise stretching of the torso with a concomitant arching of the back.
# Statistical analysis was performed using Prism™ 4.01 software package (GraphPad, San Diego, Calif., USA). The difference in response levels between treatment groups and control vehicle group was analyzed using an ANOVA followed by Bonferroni's method for post-hoc pair-wise comparisons. A p value <0.05 was considered to be significant
# Animals were treated with vehicle (VEH) or Compound 5 (100 mg/kg i.p.; CMP) 10-20 minutes before the intraperitoneal injection of acetic acid, as described above.
# [3] = system: NGF-induced Erk 1/2 phosphorylation in PC12 cells; experiment: Erk phosphorylation in NGF-stimulated PC12 cells (Western blot, ELISA); format: cell-based, rat; details: 1 ng/mL NGF, result in words
# Experimental: This assay is useful for establishing that the compounds of the invention are functional NGF antagonists, not receptor agonists (an agonist could conceivably block NGF binding but actually activate the receptor). Erk 1/2 is a kinase activated down stream of TrkA and is a well studied member of the NGF-induced signal transduction cascade.
# PC12 cells expressing TrkA and p75 were acutely exposed to 1 ng/mL NGF (15 min; 37° C.; 5% CO2) that was pre-incubated (30 min; room temperature) with or without the compounds. Cells were lysed in Laemmli sample buffer (for SDS-PAGE) or a lysis buffer containing Triton X-100 (for ELISA). Following SDS-PAGE, proteins were electroblotted onto nitrocellulose and immunoprobed for phosphorylated Erk 1 and 2. Blocking and primary antibody incubations of immunoblots were performed in Tris-buffered saline-Tween (10 mM Tris, pH 8.0, 150 mM NaCl, and 0.2% Tween 20) supplemented with 5% (w/v) bovine serum albumin (BSA); secondary antibody incubations were performed in 5% (w/v) dried skim milk powder. Immunoreactive bands were detected by chemiluminescence.
# To detect phosphorylated Erk 1/2 by ELISA, a kit from R&D (Minneapolis, Minn.) Systems was used. […] The quantity of phosphoryated Erk 1/2 was quantified colorometrically with a standard HRP-streptavidin reaction.
smiles,measurement,setting,value
"O=C(O)c1ccc(Cl)c(N2C(=O)c3cccc4cc([N+](=O)[O-])cc(c34)C2=O)c1 [Compound 5, 4-Chloro-3-(5-nitro-1,3-dioxo-1H,3H-benzo[de]isoquinolin-2-yl)-benzoic acid]",blocking of NGF binding (dose-response curve),[1],effectively block NGF binding
same,chemically-induced abdominal contractions (number in 30 minutes),"[2]; 100 mg/kg i.p. 10-20 min before acetic acid, vehicle 58±3, n=6",14±6
same,antinociceptive effect in the Writhing Test,"[2]; 100 mg/kg i.p., result in words, p<0.001 vs vehicle, 100 mg/kg",significant antinociceptive effects
same,"NGF-induced Erk 1/2 phosphorylation, ELISA",[3],inhibits NGF-induced Erk 1/2 phosphorylation
same,"NGF-induced Erk 1/2 phosphorylation, Western blot",[3],inhibits NGF-induced Erk 1/2 phosphorylation
